Experimental findings from article PMC10418426, “A Comprehensive Technology Platform for the Rapid Discovery of Peptide Inhibitors against SARS-CoV-2 Pseudovirus Infection” (International Journal of Molecular Sciences, 2023) are described below.

Starred links: 1 amine or outer side, 2 acyl side, 3 side chain; linkers in the order of their positions; H or OH if unused. Positions of bridges follow the written chain, without caps; N, C: chain ends. Residues, ends and D or L forms follow the SMILES beside them. mXylylene = c1cc(C[*:1])cc(C[*:2])c1

In this experiment the target is T1, Wuhan variant RBD-Fc / ACE2 interaction (Homo sapiens, UniProt Q9BYF1).
T1 construct: purchased RayBiotech
The experiment in a line: biochemical. The following applies: read-out: percentage of inhibition of RBD binding to ACE2.

By inhibition is commonly meant the relative decrease from the control value, in per cent. For the molecule `C[C@@H](O)[C@@H]1NC(=O)[C@@H]2CCCN2C(=O)[C@H](CCC(N)=O)NC(=O)[C@@H](N)CSCc2cccc(c2)CSC[C@@H](C(N)=O)NC(=O)[C@H](CCC(N)=O)NC(=O)[C@H](Cc2c[nH]c3ccccc23)NC(=O)CNC(=O)[C@H](CCCCN)NC(=O)CNC(=O)[C@H](CC(N)=O)NC1=O` [c9_05] (H-CQPTNGKGWQC-NH2; linker 1-11 via mXylylene), the inhibition at 100 µM amounted to 78%.
